For orientation: Tmax means the time from dosing to the highest level. One may read the clearance as a measure of how efficiently the substance is removed, as volume per time. A low value points to a low capacity for elimination. The term half-life denotes how long it takes for the measured level to halve. Read a high half-life as slow loss. The term Vd denotes a proportionality between amount in the body and measured concentration, not a real space. The low end stands for little distribution into tissue, the high end for wide distribution into tissue.

These results are taken from patent US5272177A, “Use of sebacic acid and derivatives thereof in enteral and parenteral nutrition and pharmaceutical compositions containing said compounds” (priority 1989, dated 1993).

Bounds are passed on as bounds.

For one data set, the system named is Wistar rats. In words: Acute toxicity test, oral and intraperitoneal, rats. It is filed as in vivo. To be noted: oral and intraperitoneal administration; Wistar rats (128).
Data set [1] has as its system rabbits. The conditions noted are these: rabbit, in vivo.
Data set [2] has as its system rats. The conditions noted are these: rat, in vivo.
The next data set deals with New Zealand rabbits. In words: Acute toxicity test, oral and intraperitoneal, rabbits. It is filed as in vivo. To be noted: oral and intraperitoneal administration; New Zealand rabbits (128).
A further data set relates to healthy male volunteers. In words: Respiratory and metabolic parameters by indirect calorimetry during infusion. It is filed as in vivo. As to the method: Respiratory and metabolic parameters were evaluated by indirect calorimetry from the beginning of the infusion for 210 minutes.
The nature of data set [3]: clinical. The conditions noted are these: human, in vivo, iv.
For data set [4] the following is noted: human, in vivo.
Data set [5] deals with rabbits. To be noted: rabbit, in vivo. This is another data set of the same source.
A short description of data set [6]: clinical. The conditions noted are these: human, in vivo, iv. The source holds these as a separate data set.
Data set [7] concerns rats. The conditions noted are these: rat, in vivo. This is another data set of the same source.
The nature of data set [8]: Toxicity (general statement).
The test system of data set [9] is rats. To be noted: rat, in vivo. The text has this:
(§1) Similarly, subacute and chronic toxicities were studied in 40 rats (20 male and 20 female) and 40 rabbits (20 male and 20 female) that had been administered sebacic acid formulated into pellets.
This is another data set of the same source.

Data set [10] relates to rabbits. The conditions noted are these: rabbit, in vivo.
Text: as §1
This is another data set of the same source.

On to `O=C([O-])CCCCCCCCC(=O)[O-].[Na+].[Na+]` [disodium sebacate], for which the LD50 entry in the data set on Wistar rats and in the data set on New Zealand rabbits was “did not allow LD50 to be assessed” throughout. In addition, the “Acute or chronic toxic effects” value in the data set on rabbits [1] and in the data set with rats [2] was “do not exhibit particular acute or chronic toxic effects” in each case.

Regarding `O=C([O-])CCCCCCCCC(=O)[O-].[K+].[K+]` [potassium sebacate], the “Acute or chronic toxic effects” value in the data set on rabbits [1] and in the data set with rats [2] was “do not exhibit particular acute or chronic toxic effects” throughout.

For `O=C(O)CCCCCCCCC(=O)O` [sebacate], the “Percent of calories derived from lipids” value with healthy male volunteers (during and after the infusion, from -0.13±13.3) is 52.1±26.2%. In the data set on healthy male volunteers (end of the infusion, basal 147.7±27.3), the “CO2 production (VCO2)” value amounted to 123.7±25.0 ml/min/m^2. Moreover, in the data set on healthy male volunteers (from 0.96±0.04, decreased significantly), the “Respiratory quotient (RQ)” value turned out to be 0.81±0.06. Moreover, the “O2 consumption (VO2)” value in the data set on healthy male volunteers (time 180 min, time 0: 154.3±28.3) was 155.3±39.5 ml/min/m^2. For the same compound, in the data set “clinical [3]”, the Tmax is 3 h, the clearance was 99.3 mL/min and the half-life was 20.4 ± 3.6 min. The compound further had a Vd in “clinical [3]” (Volume of the central compartment) of 2.79 ± 0.54 L. The same compound gave a Vd in the data set “clinical [3]” (Volume of tissue compartment) of 3.72 ± 0.14 L. In addition, the Tissue fixation entry in data set [4] is listed as “good tissue fixation”.

Turning to `O=C(O)CCCCCCCCC(=O)O` [sebacic acid], the Fetal development result in the data set with rabbits [5] and in the data set on rats [7] was “fetal development was absolutely normal” in each case. Also, the “Fetal toxicity, teratogenesis and neonatal toxicity” value in the data set with rabbits [5] and in the data set on rats [7] was “did not allow any toxicity effect to be detected” in each case. Further, the Teratogenic effect entry in the data set on rabbits [5] and in the data set on rats [7] was “no teratogenic effect was ever noticed” each time. Moreover, the dose excreted in the data set “clinical [6]” is below 16%. The Energy production (human) came out at 6.64 kcal/g. In addition, where the note is “in vivo”, the “Oxidation in the body” value is “completely oxidized in the body to CO2 and H2 O”. For the same compound, the Toxicity entry in [8] is listed as “Neither sebacic acid nor its derivatives according to the present invention are toxic”. Moreover, the “Biological parameters (haematic values, growing curves, histologic samples)” value in the data set on rats [9] and in the data set on rabbits [10] was “No significant difference in biological parameters” throughout. Also, in data set [4], the Tubular secretion entry is on record as “a tubular secretion of sebacic acid had taken place”.
